{"source": "patent US6399649B1", "about": "“Compositions and methods for the treatment of chronic lymphocytic leukemia” (Boston Medical Center Corporation, priority 1998, dated 2002)", "type_in_all_cases": "cell-based, human", "key": {"PDE-4B transcript": {"system": "PDE-4B transcript", "assay": "Northern analysis of PDE-4B transcript in cultured CLL cells", "settings": "10 uMol/L, six hour culture period", "protocol": "RNA was isolated from CLL or whole mononuclear cells using Ultraspec reagent (Biotecx, Houston, Tex.). cDNA was synthesized from 10 ug of total RNA using oligo d(T) primers and Maloney murine leukemia virus reverse transcriptase in a final volume of 40 uL (Stratagene, La Jolla, Calif.). One mL of the first strand cDNA product was then used as template for PCR amplification with AmpliTaq DNA polymerase (Roche Molecular Systems, Branchburg, N.J.) by 40 thermocycles of 94° C. for 1 minute, 600° C. for 1 minute and 72° C. for 1 minute. […] For hybridization to Northern blots, these PCR products were subcloned into a plasmid vector (pCRII, Invitrogen, Carlsbad, Calif.) and subsequently utilized for PCR-based amplification of a32P dATP-labelled probes.\nRNA was isolated from 20 million CLL cells immediately after cell purification (CT), or after 6 hours culture in media alone (6 Hr) or with addition of 10 uMol/L rolipram (Roli). Equal loading and transfer of RNA was confirmed by hybridization with an actin probe as shown."}, "CLL cells [1]": {"system": "CLL cells", "assay": "DNA ladder gel assay", "settings": "72 hours; 10 uMol/L rolipram, 40 uMol/L forskolin", "method": "10 million purified CLL cells were harvested by centrifugation following exposure to drugs during a 72 hour tissue culture incubation. Cells were lysed in 0.5 mL of 20 mMol/L Tris (pH 7.4), 0.4 mMol/L EDTA, 0.25% Triton X. After 15 minutes of incubation at room temperature, nuclei were removed by centrifugation at 14,000 rpm (RCF=16,000). The supernatant was transferred to a new tube and soluble DNA precipitated overnight at −20° C. following the addition of […] of 5 Mol/L NaCl and […] of isopropanol. After centrifugation at 14000 rpm for 10 minutes, followed by a 70% ethanol wash, the pellet was resuspended in 20 uL of 10 mMol/L Tris (pH 8.0), 1 mMol/L EDTA, 0.1 mg/mL RNase and incubated at 37° C. for 30 minutes prior to electrophoresis on 1.6% TBE agarose gels. DNA fragments were visualized by UV light after staining the gels with ethidium bromide.\nConsequently, a study of the activity of type 4-specific PDE inhibitors as inducers of cAMP-mediated apoptosis in leukemic cells from CLL patients was carried out. CLL cells were incubated for 72 hours either alone or with 10 uMol/L rolipram, 40 uMol/L forskolin or both agents. We tested whether rolipram induces intemucleosomal DNA fragmentation characteristic of apoptosis by isolating soluble DNA from the leukemic cells with detergent treatment, then removing DNA from intact non-apoptotic nuclei by centrifugation. […]"}, "CLL cells [2]": {"system": "CLL cells", "assay": "Hoechst 33342 apoptosis assay, CLL cells", "settings": "for percentage of apoptotic cells: 10 uMol/L rolipram", "method": "Hoechst 33342 was dissolved in water and frozen at 33 mg/mL at −20° C. One million cells/well were incubated in duplicate or triplicate in 48 well tissue culture plates (Costar, Cambridge, Mass.) with or without drug treatment for […] in 1 mL of culture media. Cells were transferred to 12×75 mm polystyrene Falcon® 2054 FACS tubes (Becton Dickinson Labware, Lincoln Park, N.J.) and incubated for ten minutes at 37° C. with Hoechst 33342 at a final concentration of […]. 23 Cells were stored on ice until analysis on a FACS Vantage flow cytometer (Becton Dickinson, San Jose, Calif.). Hoechst 33342 dye fluorescence was excited with a UV laser and detected using a 450 bandpass filter; Data was analyzed using Cellquest software (Becton Dickinson, San Jose, Calif.).\nAs a more quantitative analysis of CLL apoptosis, we utilized a flow cytometry method in which apoptotic cells are distinguished both by their reduced size (FSC) and their increased uptake of the lipophilic UV fluorescent dye Hoechst 33342 (FL-4) when the intact, heterogeneous cell population is incubated with a low concentration of the dye (0.25 ug/mL) for 10 minutes at 37° C. Specifically, cells were cultured for 72 hours in media (1), 1uMol/L rolipram (2), 40 uMol/L forskolin (3) or a combination of the two drugs (FIG. 6). The abcissa reflects forward light scatter and the ordinate Hoechst 33342 fluorescence. Apoptotic cells are characterized by reduced forward light scatter and increased Hoechst 33342 fluorescence. Previous reports of cAMP induced lymphoid apoptosis have noted that this form of programmed cell death may take 48 to 72 hours to develop maximally. […] CLL cells were cultured for 72 hours in one mL of media with the indicated concentration of rolipram with (black bars) or without (stippled bars) the addition of 40 uMol/L forskolin."}, "[3]": {"system": "CLL cells, resting or anti-Ig activated CD19+ cells, IL-2 supplemented WMC", "assay": "cAMP time course in four cell populations", "settings": "24 hours; any of the four cell populations", "method": "[…] 0.8 mL of cells were pelleted by spinning at 4,000 rpm (RCF=1,310) in microcentrifuge tube. After discarding 0.7 mL, 400 uL of ethanol was added, vortexed and left on ice for five minutes. Particulate cell debris was removed by centrifugation at 14,000 rpm (RCF=16,000). The supernatant was stored at −20° C. until the day of assay, at which time it was dried in a Speedivac (Savant, Farmingdale, N.Y.) to a volume of 50 uL. After ten-fold dilution in 10 mMol/L Tris pH 8.0, 1 mMol/L EDTA, the cAMP sample was analyzed for cAMP concentration using a cAMP RIA kit (NEN, Boston, Mass.) according to the manufacturer's instructions using the nonacetylated protocol.\nFor each of the four cell populations, two or six hours after drug treatment, cAMP levels were higher for rolipram/forskolin-treated cells than for forskolin only treated cells (test: one tailed significance level<0.05) (FIG. 9)."}}, "data": [{"smiles": "COc1ccc(C2CNC(=O)C2)cc1OC1CCCC1", "note": "(racemic) [rolipram, 4-(3-cyclopentyloxy-4-methoxyphenyl)-2-pyrrolidone]", "values": [{"measurement": "PDE-4B transcript levels", "setting": "PDE-4B transcript", "result": "significantly reduced this fall in PDE-4B transcript levels"}, {"measurement": "internucleosomal DNA fragmentation", "setting": "CLL cells [1]", "result": "pronounced internucleosomal DNA fragmentation"}, {"measurement": "absolute increase in apoptotic cells", "setting": "CLL cells [2]; 10 uMol/L, four relatively rolipram-resistant patient samples (Pt #'s 11-14)", "result": "less than 33%"}, {"measurement": "CLL cell apoptosis", "setting": "CLL cells [2]; 72 hour culture, rolipram dose range with or without 40 uMol/L forskolin", "result": "dose dependent increase in CLL cell apoptosis"}, {"measurement": "apoptosis of anti-Ig stimulated CLL cells", "setting": "CLL cells [2]; CLL cells derived from two patients", "result": "failed to protect these cells from rolipram-induced apoptosis"}, {"measurement": "percentage of apoptotic cells", "setting": "CLL cells [2]; Pt. 1, Rai III, basal 47, 40 uMol/L forskolin or 100 uMol/L dbcAMP, three days", "result": 80, "unit": "%"}, {"measurement": "percentage of apoptotic cells", "setting": "CLL cells [2]; Pt. 2, Rai IV, Drug Res. Ch, Cy, basal 18 ± 2, 40 uMol/L forskolin or 100 uMol/L dbcAMP, three days", "result": 79, "unit": "%"}, {"measurement": "percentage of apoptotic cells", "setting": "CLL cells [2]; Pt. 3, Rai IV, Drug Res. Ch, CH, basal 38, 40 uMol/L forskolin or 100 uMol/L dbcAMP, three days", "result": "77 ± 1", "unit": "%"}, {"measurement": "percentage of apoptotic cells", "setting": "CLL cells [2]; Pt. 4, Rai I, basal 31 ± 2, 40 uMol/L forskolin or 100 uMol/L dbcAMP, three days", "result": "76 ± 2", "unit": "%"}, {"measurement": "percentage of apoptotic cells", "setting": "CLL cells [2]; Pt. 5, Rai IV, basal 18, 40 uMol/L forskolin or 100 uMol/L dbcAMP, three days", "result": "57 ± 2", "unit": "%"}, {"measurement": "percentage of apoptotic cells", "setting": "CLL cells [2]; Pt. 6, Rai IV, Drug Res. Ch, basal 17 ± 4, 40 uMol/L forskolin or 100 uMol/L dbcAMP, three days", "result": "54 ± 1", "unit": "%"}, {"measurement": "percentage of apoptotic cells", "setting": "CLL cells [2]; Pt. 7, Rai II, Drug Res. Ch, basal 13 ± 2, 40 uMol/L forskolin or 100 uMol/L dbcAMP, three days", "result": "47 ± 2", "unit": "%"}, {"measurement": "percentage of apoptotic cells", "setting": "CLL cells [2]; Pt. 8, Rai 0, basal 5, 40 uMol/L forskolin, three days", "result": 46, "unit": "%"}, {"measurement": "percentage of apoptotic cells", "setting": "CLL cells [2]; Pt. 9, Rai IV, Drug Res. Ch, Cy, Fl, basal 4 ± 0, 40 uMol/L forskolin or 100 uMol/L dbcAMP, three days", "result": "44 ± 3", "unit": "%"}, {"measurement": "percentage of apoptotic cells", "setting": "CLL cells [2]; Pt. 10, Rai I, basal 11, 40 uMol/L forskolin or 100 uMol/L dbcAMP, three days", "result": "44 ± 0", "unit": "%"}, {"measurement": "percentage of apoptotic cells", "setting": "CLL cells [2]; Pt. 11, Rai 0, basal 24 ± 4, 40 uMol/L forskolin or 100 uMol/L dbcAMP, three days", "result": "40 ± 0", "unit": "%"}, {"measurement": "percentage of apoptotic cells", "setting": "CLL cells [2]; Pt. 12, Rai IV, Drug Res. Ch, Fl, 2C, basal 0 ± 4, 40 uMol/L forskolin or 100 uMol/L dbcAMP, three days", "result": "38 ± 1", "unit": "%"}, {"measurement": "percentage of apoptotic cells", "setting": "CLL cells [2]; Pt. 13, Rai 0, basal 2 ± 0, 40 uMol/L forskolin or 100 uMol/L dbcAMP, three days", "result": "34 ± 0", "unit": "%"}, {"measurement": "percentage of apoptotic cells", "setting": "CLL cells [2]; Pt. 14 (significant population of cells with prolymphocyte morphology), Rai I, basal 13 ± 0, 40 uMol/L forskolin or 100 uMol/L dbcAMP, three days", "result": "14 ± 0", "unit": "%"}, {"measurement": "effect on doxorubicin-induced apoptosis", "setting": "CLL cells [2]; rolipram 10 uMol/L, doxorubicin 0.03 or 0.1 uMol/L, three days", "result": "augments doxorubicin-induced apoptosis"}, {"measurement": "effect on fludarabine-induced apoptosis", "setting": "CLL cells [2]; rolipram 10 uMol/L, fludarabine 0.3-3.0 uMol/L, three days", "result": "augments fludarabine-induced apoptosis"}, {"measurement": "effect on chlorambucil-induced apoptosis", "setting": "CLL cells [2]; rolipram 10 uMol/L, three days", "result": "augments chlorambucil-induced apoptosis"}, {"measurement": "augmentation of forskolin-stimulated cAMP accumulation", "setting": "[3]", "result": "no longer significant rolipram-induced augmentation"}]}]}
